Columns and labels:
HBV = assay: Determination of HBV DNA from the supernatants of HepAD38 cells (anti-HBV activity); type: cell-based, hepatitis B virus; conditions: Hepatitis B virus, 144 h; HBV DNA in HepAD38 supernatant at day 6; read-out: Cell Activity (EC50)
How it was run: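 EC50 values were obtained by non-linear regression of HBV DNA copy numbers measured by qPCR against pCH-9/3091 plasmid standards. The DNA came from filtered supernatants collected on day 6. Before that, tetracycline-withdrawn HepAD38 cells had been exposed to serial half-log compound dilutions, with tetracycline-treated cells as the non-producing control.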

HBV core protein = HBV core protein (UniProt P03146); type: biochemical; conditions: read-out: Assembly Activity (IC50); BODIPY-FL labelled core protein, assembly started with NaCl, read after 6 min
How it was run: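 Compounds tested at 8 concentrations in 0.5-log steps from 100, 31.6 or 10 μM against 1.0–2.0 μM BODIPY-FL-labelled Cys150 core dimers (residues 1–149), 50 mM HEPES pH 7.5. NaCl ([…] final) triggered assembly; quenching read at 6 min, 477/525 nm, with 2.5 M and 0 M NaCl as controls; EC50 by nonlinear fit.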

Sequence of HBV core protein (P03146 whole entry, looked up, the tested form may be a part): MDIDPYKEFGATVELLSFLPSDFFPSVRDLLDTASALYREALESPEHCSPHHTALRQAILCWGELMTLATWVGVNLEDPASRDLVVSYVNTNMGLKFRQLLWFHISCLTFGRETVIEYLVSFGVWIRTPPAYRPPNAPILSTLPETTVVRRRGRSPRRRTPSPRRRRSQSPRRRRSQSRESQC

Compound: Nc1nc2c(s1)CN(C(=O)c1cc3c(Cl)c(Cl)ccc3[nH]1)CC2 [Example 176, 5-(4,5-dichloro-1H-indole-2-carbonyl)-4H,5H,6H,7H-[1,3]thiazolo[5,4-c]pyridin-2-amine]
- EC50 (HBV): 1 to 10 µM
- IC50 (HBV core protein): 5 to 10 µM

Compound: Nc1nc2c(s1)CN(C(=O)c1cc3c(Cl)ccc(Cl)c3[nH]1)CC2 [Example 177, 5-(4,7-dichloro-1H-indole-2-carbonyl)-4H,5H,6H,7H-[1,3]thiazolo[5,4-c]pyridin-2-amine]
- EC50 (HBV): < 100 µM
- IC50 (HBV core protein): < 100 µM

Compound: CC(O)CNc1nc2c(s1)CN(C(=O)c1cc3ccccc3[nH]1)CC2 (centres unmarked) [Example 178, 1-{[5-(1H-indole-2-carbonyl)-4H,5H,6H,7H-[1,3]thiazolo[5,4-c]pyridin-2-yl]amino}propan-2-ol]
- EC50 (HBV): < 1 µM
- IC50 (HBV core protein): < 5 µM

Compound: NCCNc1nc2c(s1)CN(C(=O)c1cc3ccccc3[nH]1)CC2 [Example 179, N1-[5-(1H-indole-2-carbonyl)-4H,5H,6H,7H-[1,3]thiazolo[5,4-c]pyridin-2-yl]ethane-1,2-diamine]
- EC50 (HBV): 1 to 10 µM
- IC50 (HBV core protein): 5 to 10 µM

Compound: O=C(c1cc2ccccc2[nH]1)N1CCc2nc(NC3CCOC3)sc2C1 (centres unmarked) [Example 180, 5-(1H-indole-2-carbonyl)-N-(oxolan-3-yl)-4H,5H,6H,7H-[1,3]thiazolo[5,4-c]pyridin-2-amine]
- EC50 (HBV): < 1 µM
- IC50 (HBV core protein): < 5 µM

Compound: CN1CCN(CCNc2nc3c(s2)CN(C(=O)c2cc4ccccc4[nH]2)CC3)CC1 [Example 181, 5-(1H-indole-2-carbonyl)-N-[2-(4-methylpiperazin-1-yl)ethyl]-4H,5H,6H,7H-[1,3]thiazolo[5,4-c]pyridin-2-amine]
- EC50 (HBV): 1 to 10 µM
- IC50 (HBV core protein): < 5 µM

Compound: Cc1nc2c(s1)CN(C(=O)c1cc3cccc(OC(F)F)c3[nH]1)CC2 [Example 182, 7-(difluoromethoxy)-2-{2-methyl-4H,5H,6H,7H-[1,3]thiazolo[5,4-c]pyridine-5-carbonyl}-1H-indole]
- EC50 (HBV): 1 to 10 µM
- IC50 (HBV core protein): < 100 µM

Compound: Cc1nc2c(s1)CN(C(=O)c1cc3cccc(OC(F)(F)F)c3[nH]1)CC2 [Example 183, 2-{2-methyl-4H,5H,6H,7H-[1,3]thiazolo[5,4-c]pyridine-5-carbonyl}-7-(trifluoromethoxy)-1H-indole]
- EC50 (HBV): < 100 µM
- IC50 (HBV core protein): < 100 µM

Compound: Cc1nc2c(s1)CN(C(=O)c1cc3c(C)cccc3[nH]1)CC2 [Example 184, 4-methyl-2-{2-methyl-4H,5H,6H,7H-[1,3]thiazolo[5,4-c]pyridine-5-carbonyl}-1H-indole]
- EC50 (HBV): < 1 µM
- IC50 (HBV core protein): < 5 µM

Compound: Cc1nc2c(s1)CN(C(=O)c1cc3c(Cl)c(Cl)ccc3[nH]1)CC2 [Example 185, 4,5-dichloro-2-{2-methyl-4H,5H,6H,7H-[1,3]thiazolo[5,4-c]pyridine-5-carbonyl}-1H-indole]
- EC50 (HBV): < 100 µM
- IC50 (HBV core protein): < 100 µM

Compound: Cc1nc2c(s1)CN(C(=O)c1cc3c(Cl)ccc(Cl)c3[nH]1)CC2 [Example 186, 4,7-dichloro-2-{2-methyl-4H,5H,6H,7H-[1,3]thiazolo[5,4-c]pyridine-5-carbonyl}-1H-indole]
- EC50 (HBV): < 100 µM
- IC50 (HBV core protein): < 100 µM

Compound: Cc1nc2c(s1)CN(C(=O)c1cc3c(Cl)cc(F)cc3[nH]1)CC2 [Example 187, 4-chloro-6-fluoro-2-{2-methyl-4H,5H,6H,7H-[1,3]thiazolo[5,4-c]pyridine-5-carbonyl}-1H-indole]
- EC50 (HBV): < 1 µM
- IC50 (HBV core protein): < 5 µM

Compound: Cc1nc2c(s1)CN(C(=O)c1cc3c(Cl)cc(Cl)cc3[nH]1)CC2 [Example 188, 4,6-dichloro-2-{2-methyl-4H,5H,6H,7H-[1,3]thiazolo[5,4-c]pyridine-5-carbonyl}-1H-indole]
- EC50 (HBV): 1 to 10 µM
- IC50 (HBV core protein): 5 to 10 µM

Compound: Cc1nc2c(s1)CN(C(=O)c1cc3cccc(Cl)c3[nH]1)CC2 [Example 189, 7-chloro-2-{2-methyl-4H,5H,6H,7H-[1,3]thiazolo[5,4-c]pyridine-5-carbonyl}-1H-indole]
- EC50 (HBV): 1 to 10 µM
- IC50 (HBV core protein): 5 to 10 µM

Compound: Cc1nc2c(s1)CN(C(=O)c1cc3c(C)cc(F)cc3[nH]1)CC2 [Example 190, 6-fluoro-4-methyl-2-{2-methyl-4H,5H,6H,7H-[1,3]thiazolo[5,4-c]pyridine-5-carbonyl}-1H-indole]
- EC50 (HBV): < 1 µM
- IC50 (HBV core protein): < 5 µM

Compound: Cc1nc2c(s1)CN(C(=O)c1cc3c(F)ccc(F)c3[nH]1)CC2 [Example 191, 4,7-difluoro-2-{2-methyl-4H,5H,6H,7H-[1,3]thiazolo[5,4-c]pyridine-5-carbonyl}-1H-indole]
- EC50 (HBV): < 1 µM
- IC50 (HBV core protein): 5 to 10 µM

Compound: Cc1nc2c(s1)CN(C(=O)c1cc3c(F)c(F)ccc3[nH]1)CC2 [Example 193, 4,5-difluoro-2-{2-methyl-4H,5H,6H,7H-[1,3]thiazolo[5,4-c]pyridine-5-carbonyl}-1H-indole]
- EC50 (HBV): < 1 µM
- IC50 (HBV core protein): < 5 µM

Compound: COc1cccc2[nH]c(C(=O)N3CCc4nc(C)sc4C3)cc12 [Example 194, 4-methoxy-2-{2-methyl-4H,5H,6H,7H-[1,3]thiazolo[5,4-c]pyridine-5-carbonyl}-1H-indole]
- EC50 (HBV): < 100 µM
- IC50 (HBV core protein): < 100 µM

Compound: Nc1nc2c(s1)CN(C(=O)c1cc3c(F)cccc3[nH]1)CC2 [Example 195, 5-(4-fluoro-1H-indole-2-carbonyl)-4H,5H,6H,7H-[1,3]thiazolo[5,4-c]pyridin-2-amine]
- EC50 (HBV): 1 to 10 µM
- IC50 (HBV core protein): 5 to 10 µM

Compound: Nc1nc2c(s1)CN(C(=O)c1cc3cc(F)ccc3[nH]1)CC2 [Example 196, 5-(5-fluoro-1H-indole-2-carbonyl)-4H,5H,6H,7H-[1,3]thiazolo[5,4-c]pyridin-2-amine]
- EC50 (HBV): 1 to 10 µM
- IC50 (HBV core protein): < 5 µM

Compound: Nc1nc2c(s1)CN(C(=O)c1cc3ccc(F)cc3[nH]1)CC2 [Example 197, 5-(6-fluoro-1H-indole-2-carbonyl)-4H,5H,6H,7H-[1,3]thiazolo[5,4-c]pyridin-2-amine]
- EC50 (HBV): < 1 µM
- IC50 (HBV core protein): < 5 µM

Compound: Nc1nc2c(s1)CN(C(=O)c1cc3ccc(C(F)(F)F)cc3[nH]1)CC2 [Example 199, 5-[6-(trifluoromethyl)-1H-indole-2-carbonyl]-4H,5H,6H,7H-[1,3]thiazolo[5,4-c]pyridin-2-amine]
- EC50 (HBV): < 1 µM
- IC50 (HBV core protein): < 5 µM

Compound: O=C(c1cc2ccccc2[nH]1)N1CCc2ncsc2C1 [Example 200, 2-{4H,5H,6H,7H-[1,3]thiazolo[5,4-c]pyridine-5-carbonyl}-1H-indole]
- EC50 (HBV): 1 to 10 µM
- IC50 (HBV core protein): < 5 µM

Compound: NC(=O)c1nc2c(s1)CN(C(=O)c1cc3ccccc3[nH]1)CC2 [Example 201, 5-(1H-indole-2-carbonyl)-4H,5H,6H,7H-[1,3]thiazolo[5,4-c]pyridine-2-carboxamide]
- EC50 (HBV): 1 to 10 µM
- IC50 (HBV core protein): < 100 µM

Compound: O=C(c1cc2ccccc2[nH]1)N1CCc2nc(-c3ncccn3)sc2C1 [Example 202, 2-[2-(pyrimidin-2-yl)-4H,5H,6H,7H-[1,3]thiazolo[5,4-c]pyridine-5-carbonyl]-1H-indole]
- EC50 (HBV): 1 to 10 µM
- IC50 (HBV core protein): 5 to 10 µM

Compound: N#Cc1nc2c(s1)CN(C(=O)c1cc3ccccc3[nH]1)CC2 [Example 203, 5-(1H-indole-2-carbonyl)-4H,5H,6H,7H-[1,3]thiazolo[5,4-c]pyridine-2-carbonitrile]
- EC50 (HBV): < 100 µM
- IC50 (HBV core protein): < 100 µM

Compound: CN(C)c1nc2c(s1)CN(C(=O)c1cc3ccccc3[nH]1)CC2 [Example 204, 5-(1H-indole-2-carbonyl)-N,N-dimethyl-4H,5H,6H,7H-[1,3]thiazolo[5,4-c]pyridin-2-amine]
- EC50 (HBV): 1 to 10 µM
- IC50 (HBV core protein): < 100 µM

Compound: CC1(C)OCC(CNc2nc3c(s2)CN(C(=O)c2cc4ccccc4[nH]2)CC3)O1 (centres unmarked) [Example 205, N-[(2,2-dimethyl-1,3-dioxolan-4-yl)methyl]-5-(1H-indole-2-carbonyl)-4H,5H,6H,7H-[1,3]thiazolo[5,4-c]pyridin-2-amine]
- EC50 (HBV): < 1 µM
- IC50 (HBV core protein): 5 to 10 µM

Compound: O=C(c1cc2ccccc2[nH]1)N1CCc2nc(NC3CCOCC3)sc2C1 [Example 206, 5-(1H-indole-2-carbonyl)-N-(oxan-4-yl)-4H,5H,6H,7H-[1,3]thiazolo[5,4-c]pyridin-2-amine]
- EC50 (HBV): < 1 µM
- IC50 (HBV core protein): < 5 µM

Compound: O=C(c1cc2ccccc2[nH]1)N1CCc2nc(NCC(O)CO)sc2C1 (centres unmarked) [Example 208, 3-{[5-(1H-indole-2-carbonyl)-4H,5H,6H,7H-[1,3]thiazolo[5,4-c]pyridin-2-yl]amino}propane-1,2-diol]
- EC50 (HBV): < 1 µM
- IC50 (HBV core protein): < 5 µM

Compound: CN(C)c1nc2c(s1)CN(C(=O)c1cc3c(Cl)cc(F)cc3[nH]1)CC2 [Example 209, 5-(4-chloro-6-fluoro-1H-indole-2-carbonyl)-N,N-dimethyl-4H,5H,6H,7H-[1,3]thiazolo[5,4-c]pyridin-2-amine]
- EC50 (HBV): 1 to 10 µM
- IC50 (HBV core protein): 5 to 10 µM

Compound: Nc1nc2c(s1)CN(C(=O)c1cc3c(Cl)cccc3[nH]1)CC2 [Example 210, 5-(4-chloro-1H-indole-2-carbonyl)-4H,5H,6H,7H-[1,3]thiazolo[5,4-c]pyridin-2-amine]
- EC50 (HBV): < 1 µM
- IC50 (HBV core protein): < 5 µM

Compound: Cc1nc2c(s1)CN(C(=O)c1cc3c(Cl)cccc3[nH]1)CC2 [Example 211, 4-chloro-2-{2-methyl-4H,5H,6H,7H-[1,3]thiazolo[5,4-c]pyridine-5-carbonyl}-1H-indole]
- EC50 (HBV): < 1 µM
- IC50 (HBV core protein): < 5 µM

Compound: CCC(C)(CO)CNc1nc2c(s1)CN(C(=O)c1cc3ccccc3[nH]1)CC2 (centres unmarked) [Example 216, 2-({[5-(1H-indole-2-carbonyl)-4H,5H,6H,7H-[1,3]thiazolo[5,4-c]pyridin-2-yl]amino}methyl)-2-methylbutan-1-ol]
- EC50 (HBV): < 1 µM
- IC50 (HBV core protein): 5 to 10 µM
